Test results: patent publication US20090247641A1, “HYDRAZONE AGENTS TO TREAT CUTANEOUS LESIONS” (priority 2005, published 2009)

Tests used:
Assay type in all cases: in vivo, human
[1] = system: condyloma on cervix, low risk HPV in the 6/11 category; experiment: Treatment of condyloma and HPV infection with 0.25% A-007 gel (case report)
Protocol: They also had atypical squamous epithelium and CIN with warts. The cervix was inflamed with squamous exo-cervical dysplasia and a warty labial growth. They were treated with 2 grams per day of 0.25% A-007 gel applied to the vagina for five days, for a total topical dose of 10 grams. […] The HPV infection was also eliminated, and was absent after 24 months of observation.

[2] = system: cervical warts, CIN II, high risk HPV infection; experiment: Treatment of cervical warts, CIN II and high risk HPV infection with 0.25% gel (case report)
Protocol: A person had multiple abnormal pap smears with hair loss and skin changes secondary to hormonal imbalance. […] They were treated with 2 grams per day of 0.25% gel applied to the vagina for five days, for a total topical dose of 10 grams.

plantar warts = experiment: Treatment of plantar warts with A-007 0.25% gel (case report)
Excerpt: Prior attempts at local surgical removal of the warts had failed. […] A-007 was applied in a 0.25% gel (2 g) nightly for three nights and covered with an absorbent pad to allow maximum penetration.

SMILES: O=[N+]([O-])c1ccc(NN=C(c2ccc(O)cc2)c2ccc(O)cc2)c([N+](=O)[O-])c1 [A-007, 4,4′-dihydroxybenzophenone-2,4-dinitrophenylhydrazone]
- external warty mass (labial growth) ([1]; 2 grams per day of 0.25% A-007 gel, vagina, five days): fell off the labia
- HPV infection at follow-up ([1]; after 24 months of observation): absent
- HPV infection status ([1]; low risk HPV 6/11 at baseline, 2 grams per day of 0.25% A-007 gel, vagina, five days): eliminated
- cervical condyloma ([1]; person, 2 grams per day of 0.25% A-007 gel applied to the vagina for five days, total 10 grams): disappeared
- warty lesions on cervix ([2]; 2 grams per day of 0.25% gel, vagina, five days): disappeared
- CIN outcome ([2]; CIN II, 2 grams per day of 0.25% gel, vagina, five days): resolved
- status at follow-up ([2]; after 18 months of observation): stable
- HPV infection status ([2]; high risk HPV at baseline, 2 grams per day of 0.25% gel, vagina, five days): converted to low grade
- toxicities ([2]; person, 2 grams per day of 0.25% gel applied to the vagina for five days, total 10 grams): No toxicities were observed
- appearance of treated area (plantar warts; 0.25% gel (2 g) nightly for three nights, after 7 days): new skin appeared which was soft with no area of induration
- recurrence of warts and induration (plantar warts; after two months of follow-up observation): Neither the warts nor induration returned
- time until treated area began peeling and new skin appeared (plantar warts; person, left foot, 0.25% gel (2 g) nightly for three nights under absorbent pad): 7 days
